Assay results as given in patent EP1220857B1, “GONADOTROPIN RELEASING HORMONE RECEPTOR ANTAGONISTS AND THEIR RELATED METHODS OF USE” (NEUROCRINE BIOSCIENCES, INC., priority 1999, dated 2001).

What follows are compounds tested against T1, GnRH receptor (Homo sapiens, UniProt P30968) (assay: GnRH receptor membrane binding assay). Details: displacement of [125I]-labeled GnRH peptide from membranes of cells transfected with GnRH receptor expression vectors; Ki by Cheng-Prusoff.
T1 construct: expressed in transfected cells
T1 sequence (P30968 1-328): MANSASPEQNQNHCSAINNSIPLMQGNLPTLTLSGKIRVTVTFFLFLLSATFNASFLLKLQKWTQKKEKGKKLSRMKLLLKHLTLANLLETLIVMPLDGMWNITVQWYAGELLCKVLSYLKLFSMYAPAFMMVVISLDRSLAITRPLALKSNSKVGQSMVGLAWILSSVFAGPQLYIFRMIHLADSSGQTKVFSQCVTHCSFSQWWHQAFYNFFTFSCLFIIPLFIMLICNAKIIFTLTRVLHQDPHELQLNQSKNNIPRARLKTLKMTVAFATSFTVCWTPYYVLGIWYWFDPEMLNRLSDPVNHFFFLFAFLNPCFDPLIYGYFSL
Procedure: Activity of GnRH receptor antagonists are typically calculated from the IC50 as the concentration of a compound necessary to displace 50% of the radiolabeled ligand from the GnRH receptor, and is reported as a "Ki" value calculated by the following equation: Ki =(IC50)/(1 + L / KD) [formula] where L = radioligand and KD = affinity of radioligand for receptor (Cheng and Prusoff, Biochem. Pharmacol. 22:3099, 1973). GnRH receptor antagonists of this invention have a Ki of 100 µM or less. In a preferred embodiment of this invention, the GnRH receptor antagonists have a Ki of less than 10 µM, and more preferably less than 1µM. More preferred compounds include: 1-1, 1-2-5, 12, 13-15, 19, 21, 27, 31, 32, 34, 37, 55, 58, 64, 73, 2B, 2D, 3A, 3B, 3D, 4A, 4B, 4C, 4D, 4G, 4H, 5A and 5B (see Examples below).
The GnRH analog is labeled by the chloramine-T method. To 10 µg of peptide in 20 µl of 0.5M sodium phosphate buffer, pH 7.6, is added 1 mCi of Na125I, followed by 22.5 µg chloramine-T and the mixture vortexed for 20 sec. The reaction is stopped by the addition of 60 µg sodium metabisulfite and the free iodine is removed by passing the iodinated mixture through a C-8 Sep-Pak cartridge (Millipore Corp., Milford, MA). The peptide is eluted with a small volume of 80% acetonitrile/water. The recovered labeled peptide is further purified by reverse phase HPLC on a Vydac C-18 analytical column (The Separations Group, Hesperia, CA) on a Beckman 334 gradient HPLC system using a gradient of acetonitrile in 0.1% TFA. The purified radioactive peptide is stored in 0.1 % BSA/20% acetonitrile/0.1% TFA at -800C and can be used for up to 4 weeks.
Cells stably, or transiently, transfected with GnRH receptor expression vectors are harvested, resuspended in 5% sucrose and homogenized using a polytron homogenizer (2x 15 sec). Nuclei are removed by centrifugation (3000 x g for 5 min.), and the supernatant centrifuged (20,000 x g for 30 min, 4° C) to collect the membrane fraction. The final membrane preparation is resuspended in binding buffer (10mM Hepes (pH 7.5), 150 mM NaCl, and 0.1% BSA) and stored at -70°C. Binding reactions are performed in a Millipore MultiScreen 96-well filtration plate assembly with polyethylenimine coated GF/C membranes. The reaction is initiated by adding membranes (40 ug protein in 130 ul binding buffer) to 50ul of [^125I]-labeled GnRH peptide (~100,000 cpm), and 20ul of competitor at varying concentrations. The reaction is terminated after 90 minutes by application of vacuum and washing (2X) with phosphate buffered saline. Bound radioactivity is measured using 96-well scintillation counting (Packard Topcount) or by removing the filters from the plate and direct gamma counting. Ki values are calculated from competition binding data using non-linear least squares regression using the Prism software package (GraphPad Software).

Ki [nM]	SMILES
< 1000	CCOC(=O)c1cn(Cc2ccccc2F)c2cc(C(C)(C)C)c(CN(C)CCc3ccccn3)n2c1=O [Example 2B]
< 1000	CN(CCc1ccccn1)Cc1c(C(C)(C)C)cc2n(Cc3ccccc3F)cc(C(=O)NCCCc3ccccc3)c(=O)n12 [Example 2D]
< 1000	COc1cccc(-c2c(C)n(Cc3ccccc3F)c3nc(C(C)(C)C)c(CNCCc4ccccc4F)n3c2=O)c1 [Example 3A, 2-(tert-Butyl)-3-[N-(2-fluorophenyl)ethyl]aminomethyl-5-(3-methoxyphenyl)-6-methyl-7-(2-fluorobenzyl)imidazolo[1,2-a]pyrimid-4-one]
< 1000	COc1cccc(-c2c(C)n(Cc3ccccc3F)c3nc(C(C)(C)C)c(CNCCc4ccccn4)n3c2=O)c1 [Example 3B]
< 1000	COc1cccc(-c2c(C)n(Cc3ccccc3F)c3nc(C(C)(C)C)c(CNCc4ccccn4)n3c2=O)c1 [Example 3D, 3-(N-(2-Pyridylmethyl))aminomethyl-2-(tert-butyl)-6-methyl-7-(2-fluorobenzyl)-5-(3-methoxyphenyl)imidazolo[1,2-a]pyrimid-4-one]
